The results in this text go back to patent US20220218614A1, “IONIZABLE CATIONIC LIPIDS AND LIPID NANOPARTICLES, AND METHODS OF SYNTHESIS AND USE THEREOF” (Tidal Therapeutics, Inc., priority 2020, published 2022).

“And” between values parts separate entries of the source, which are not always exact repeats. Equal entries are not always repeated. “Also recorded” adds a separate entry of the source.

Data set [1] is described as follows: Quant-iT RiboGreen RNA assay: dye accessible and total (Triton) mRNA content, encapsulation. Format: physicochemical. Here is the method:
RNA content of the nanoparticles is measured using Thermo Fisher Quant-iT RiboGreen RNA Assay Kit. Dye accessible RNA, which includes both non-incorporated RNA and RNA that is near the surface of the nanoparticle, is measured by diluting the nanoparticles to approximately 1 μg/mL mRNA using HEPES buffered saline, and then adding Quant-iT reagent to the mixture. Total RNA content is measured by diluting the particles to 1 μg/mL mRNA using HEPES buffered saline, disrupting the nanoparticles by heating them to 60° C. for 30 minutes in HEPES buffered saline containing 0.5% Triton, and then adding Quant-It reagent. RNA is quantified by measuring fluorescence at 485/535 nm, and concentration is determined relative to a contemporaneously run RNA standard curve.

The nature of data set [2]: Hydrodynamic diameter and polydispersity of LNPs by dynamic light scattering (DLS), Zetasizer. Format: physicochemical. Here is the method:
(§1) Samples of the LNPs produced in Example 2 were characterized to determine the average hydrodynamic diameter, zeta potential, and mRNA content (total and dye-accessible). The hydrodynamic diameter was determined by dynamic light scattering (DLS) using a Zetasizer model ZEN3600 (Malvern Pananalytical, UK). The zeta potential was measured in 5 mM pH 5.5 MES buffer and 5 mM pH 7.4 HEPES buffer by laser Doppler electrophoresis using the Zetasizer.

Data set [3] has as its system primary human T-cells (CD3+ T cells). Kind of data set: In vitro LNP transfection of primary human T-cells (GFP, Cy5 or DiI, viability by FACS). The class given is cell-based. The following applies: for GFP protein expression (% GFP+ cells, GFP MFI), in words: hSP34 targeted LNP with GFP mRNA; for GFP protein expression (% GFP+ cells, GFP MFI), in words / T-cell viability / tolerability, in words / LNP association with cells (% Cy5+/Cy5 MFI or % DiI+/DiI MFI), in words: 24 hours; for T-cell viability / tolerability, in words / LNP association with cells (% Cy5+/Cy5 MFI or % DiI+/DiI MFI), in words: hSP34 targeted LNP; for T-cell viability / tolerability, in words: dose as in the value; for T-cell viability (% live): PBS control about 50%. The text has this:
This example describes the protocol used for in vitro LNP transfections in primary human T-cells. This method is used to assess LNP in vitro efficacy in relevant target cells (CD3+ T cells) by first transfecting the cells using LNPs loaded with mRNA encoding for a reporter gene, such as GFP mRNA, and then assessing transfection by measuring reporter gene expression by fluorescence-[…] cell sorting (FACS). Additionally, particle association with cells may be observed by in the same assay by labeling individual nanoparticle components, such as the mRNA, with a fluorescent dye, such as Cy5, and then observing cell/dye association by FACS.
CD3+ T cells were isolated from frozen peripheral blood mononuclear cells using an EasySep Human T Cell Isolation Kit on a RoboSep automated cell isolation system from […]. T cells were plated into a flat bottom 96-well plate in RPMI cell culture media supplemented with glutamax, 10% fetal bovine serum, and 40 ng/mL IL2. 100 μL of cell suspension was seeded per well at a density of 1M T cells/mL (100K T cells/well). Cells were allowed to rest for two hours in a 37° C. incubator, and then were transfected by gently adding 10 μL of a 22 μg/mL (by mRNA) nanoparticle suspension, resulting in a final mRNA concentration of 2 μg/mL. Cells were gently mixed with a pipette and then incubated for 24 hours in a 37° C. incubator. After incubation the cells were analyzed using an ThermoFisher Attune NXT flow cytometer. Cy5 was detected using a 638 nm laser with 670/14 nm filter. eGFP was detected using a 488 nm laser and a 530/30 nm filter. Data were analyzed using FlowJo software from BD biosciences. FACS data were first gated to exclude doublets and dead cells and then gated for GFP and Cy5. Gates for GFP+ and Cy5+were set such that a control sample (PBS treated T cells) was <0.1% positive.
CD3+ T cells were isolated from frozen peripheral blood mononuclear cells using an EasySep Human T Cell Isolation Kit on a RoboSep automated cell isolation system from […]. T cells were plated into a round bottom 96-well plate in RPMI cell culture media supplemented with glutamax, 10% fetal bovine serum, pen-strep, and 40 ng/mL IL-2. 100 μL of cell suspension was seeded per well at a density of 1M T cells/mL (100K T cells/well). Cells were allowed to rest for two hours in a 37° C. incubator, and then were transfected by gently adding 10 μL of a 22 μg/mL (by mRNA) nanoparticle suspension, resulting in a final mRNA concentration of 2 μg/mL (unless otherwise noted). Cells were gently mixed with a pipette and then incubated for 24 hours in a 37° C. incubator. After incubation the cells were diluted with FACS buffer (BD 554657) and analyzed using a BD Fortessa flow cytometer. Data were analyzed using FlowJo software from BD biosciences.
A general note: A flow cytometer gives signals particle by particle.

Data set [4] can be described thus: Zeta potential of LNPs by laser Doppler electrophoresis in 5 mM pH 5.5 MES and 5 mM pH 7.4 HEPES buffer. Format: physicochemical. To be noted: pH 5.5 MES and pH 7.4 HEPES buffer. Here is the method: as §1
Data set [5] is described as follows: Apparent pKa of LNPs by TNS fluorescent probe. The class given is physicochemical. To be noted: LNP made with the named ionizable lipid; pH at 50% of maximum TNS fluorescence. The text has this:
This example describes the fluorescent dye based method used for measurement of the apparent pKa of the lipid nanoparticles. Apparent pKa determines the nanoparticle surface charge under physiological pH conditions, typically a pKa value in the endosomal pH range (6-7.4) results in LNPs that are neutral or slightly charged at plasma or the extracellular space (pH 7.4) and become strongly positive under acidic endosomal environments. This positive surface charge drives fusion of the LNP surface with negatively charged endosomal membranes resulting in destabilization and rupture of the endosomal compartment and LNP escape into the cytosolic compartment, a critical step in cytosolic delivery of mRNA and protein expression via engagement of the cells ribosomal machinery.
The apparent pKa of LNPs made using ionizable Lipids 2, 5 (synthesized as described in example 1), 6 and 7 (synthesized using method analogous to Lipid 2, 5, respectively, except using diethyl amine instead of dimethyl amine to incorporate the tertiary amine head group) were determined by 6-(p-Toluidino)-2-naphthalenesulfonic acid (TNS) fluorescence measurement in aqueous buffers covering a range of pH values (pH 4-pH 10). TNS is non-fluorescent when free in solution, but which fluoresces strongly when associated with a positively charged lipid nanoparticle. At a pH values below the pKa of the nanoparticle, positive LNP surface charge results in dye recruitment at the particle interface resulting in TNS fluorescence. At pH values above the LNP pKa no fluorescence is observed. The apparent pKa of the LNP is reported as the pH at which the fluorescence is at 50% of its maximum, as determined using a four-point logistic curve fit.

[6] abbreviates: Table 11A: Lipid 5, Lipid 8 and DLn-MC3-DMA LNP, vortexer mixing, theoretical total mRNA 42.5 ug/mL.
Where [7] appears, read: Table 11A: vortexer mixing, theoretical total mRNA 42.5 ug/mL.
[8] abbreviates: Table 25: Lipid 8 and Lipid 5 LNP, theoretical total mRNA 45 ug/mL.
The mark [9] stands for this setting: Table 10: Lipid 5 and Lipid 7 LNP, theoretical total mRNA 50 μg/mL.

For the compound `CCCCC/C=C\C/C=C\CCCCCCCCC(CCCCCCCC/C=C\C/C=C\CCCCC)OC(=O)CCCN(C)C` [DLn-MC3-DMA, DLin-MC3-DMA, reference compound], in data set [1] (setting [6]), the “Measured total (Triton method) mRNA” value amounted to 33 µg/mL. Also, the “Ribogreen Dye Accessible mRNA” value in data set [1] (setting [7]) was determined as 2 µg/mL. Further, the “polydispersity after antibody conjugate insertion” value in data set [2] was determined as 0.2. Moreover, in data set [3], the “GFP protein expression (% GFP+ cells, GFP MFI), in words” value is given as “failed to express GFP protein” and the “T-cell viability / tolerability, in words” value is on record as “better tolerated at higher doses”. Also, the “LNP surface charge (zeta potential), in words” value in data set [4] is “positive zeta potential at pH 5.5, and either near neutral or slightly negative charge at pH 7.4”.

`CCCCC/C=C\C/C=C\CCCCCCCC(=O)OC[C@H](COC(=O)CCCN(C)C)OC(=O)CCCCCCC/C=C\C/C=C\CCCCC` [Lipid 2]: in data set [5], the “apparent pKa of LNP (TNS)” value is given as 7.5. Moreover, the “T-cell viability / tolerability, in words” value in data set [3] was “well tolerated by T-cells at all LNP doses tested”.

Turning to `CCCCC/C=C\C/C=C\CCCCCCCC(=O)OC[C@H](CCN(C)C)OC(=O)CCCCCCC/C=C\C/C=C\CCCCC` [Lipid 5 (N)], in data set [1] (setting [8]), the “Measured total (Triton method) mRNA” value came out at 36 µg/mL and the “Ribogreen Dye Accessible mRNA” value is 7 µg/mL.

For `CCCCC/C=C\C/C=C\CCCCCCCC(=O)OC[C@H](CCN(C)C)OC(=O)CCCCCCC/C=C\C/C=C\CCCCC` [Lipid 5 (O)], in data set [1] (setting [8]), the “Measured total (Triton method) mRNA” value amounted to 38 µg/mL and the “Ribogreen Dye Accessible mRNA” value was determined as 7 µg/mL.

For `CCCCC/C=C\C/C=C\CCCCCCCC(=O)OCC(CCN(CC)CC)OC(=O)CCCCCCC/C=C\C/C=C\CCCCC` (stereo not shown) [Lipid 7], the “% Dye Accessible mRNA” value in data set [1] (Table 10: Lipid 5 and Lipid 7 LNP) is recorded as 14%. In addition, in data set [1] (setting [9]), the “Measured total (Triton method) mRNA” value stood at 43 µg/mL and the “Ribogreen Dye Accessible mRNA” value was 6 µg/mL. Besides, the “apparent pKa of LNP (TNS)” value in data set [5] was ~6.3 and ~6.4. Besides, in data set [3], the “GFP protein expression (% GFP+ cells, GFP MFI), in words” value is “Dose dependent expression of GFP protein; also recorded: significantly lower level of GFP protein expression relative to Lipid 5 LNP formulation”; the “LNP association with cells (% Cy5+/Cy5 MFI or % DiI+/DiI MFI), in words” value is listed as “equally associated with cells”; the “T-cell viability / tolerability, in words” value was “well tolerated by T-cells at and below 0.5 μg/mL dose”.

Consider `CCCCC/C=C\C/C=C\CCCCCCCCC1(CCCCCCCC/C=C\C/C=C\CCCCC)OCC(CCN(C)C)O1` (stereo not shown) [Lipid 8, reference compound], for which the “Measured total (Triton method) mRNA” value in data set [1] (setting [6]) was determined as 30 µg/mL. Besides, in data set [1] (setting [7]), the “Ribogreen Dye Accessible mRNA” value stood at 3 µg/mL. Moreover, in data set [1] (setting [8]), the “Measured total (Triton method) mRNA” value came out at 40 µg/mL and the “Ribogreen Dye Accessible mRNA” value is 4 µg/mL. Also, in data set [2], the “polydispersity after antibody conjugate insertion” value stood at 0.2. The “T-cell viability (% live)” value in data set [3] (0.125 ug mRNA/mL per well) is on record as “about 45%”. Further, the “T-cell viability (% live)” value in data set [3] (2 ug mRNA/mL per well) is reported as “about 25%”. In data set [3], the “GFP protein expression (% GFP+ cells, GFP MFI), in words” value is given as “Dose dependent expression of GFP protein”; the “LNP association with cells (% Cy5+/Cy5 MFI or % DiI+/DiI MFI), in words” value is on record as “equally associated with cells”; the “T-cell viability / tolerability, in words” value is “slightly lower viability at higher dose of 2 μg/mL; also recorded: dose dependent toxicity towards T-cells; also recorded: well tolerated by T-cells at and below 1.0 μg/mL dose”. Also, the “LNP surface charge (zeta potential), in words” value in data set [4] was “positive zeta potential at pH 5.5, and either near neutral or slightly negative charge at pH 7.4”.

As to `CCCCC/C=C\C/C=C\CCCCCCCC(=O)OC[C@H](COC(=O)CCN(C)CCO)OC(=O)CCCCCCC/C=C\C/C=C\CCCCC` [Lipid 12], in data set [3], the “GFP protein expression (% GFP+ cells, GFP MFI), in words” value was “performed poorly” and the “T-cell viability / tolerability, in words” value is listed as “well tolerated by T-cells at all LNP doses tested”.

`CCCCC/C=C\C/C=C\CCCCCCCC(=O)OC[C@H](COC(=O)CCN(CCO)CCO)OC(=O)CCCCCCC/C=C\C/C=C\CCCCC` [Lipid 13]: in data set [3], the “GFP protein expression (% GFP+ cells, GFP MFI), in words” value is reported as “performed poorly” and the “T-cell viability / tolerability, in words” value is on record as “well tolerated by T-cells at all LNP doses tested”.
